From ChEMBL document CHEMBL4002645, “Discovery of Potent, Selective, and Structurally Novel Dot1L Inhibitors by a Fragment Linking Approach” (ACS Med Chem Lett, 2017) come the findings set out here.

SMILES strings stand for the structures.

One may read the Ki as a dissociation constant, usually derived from enzyme kinetics or from competition with a known ligand.

For assay [1], the target named is T1, Histone-lysine N-methyltransferase, H3 lysine-79 specific (Homo sapiens, UniProt Q8TEK3). Nature of the assay: Inhibition of DOT1L (2 to 416 residues) (unknown origin) using biotinylated nucleosomes as substrate preincubated for 30 mins followed by substrate addition in presence of [3H-Me]SAM by scintillation proximity assay.
Target sequence in this assay (Q8TEK3 whole entry, the tested form may be a part): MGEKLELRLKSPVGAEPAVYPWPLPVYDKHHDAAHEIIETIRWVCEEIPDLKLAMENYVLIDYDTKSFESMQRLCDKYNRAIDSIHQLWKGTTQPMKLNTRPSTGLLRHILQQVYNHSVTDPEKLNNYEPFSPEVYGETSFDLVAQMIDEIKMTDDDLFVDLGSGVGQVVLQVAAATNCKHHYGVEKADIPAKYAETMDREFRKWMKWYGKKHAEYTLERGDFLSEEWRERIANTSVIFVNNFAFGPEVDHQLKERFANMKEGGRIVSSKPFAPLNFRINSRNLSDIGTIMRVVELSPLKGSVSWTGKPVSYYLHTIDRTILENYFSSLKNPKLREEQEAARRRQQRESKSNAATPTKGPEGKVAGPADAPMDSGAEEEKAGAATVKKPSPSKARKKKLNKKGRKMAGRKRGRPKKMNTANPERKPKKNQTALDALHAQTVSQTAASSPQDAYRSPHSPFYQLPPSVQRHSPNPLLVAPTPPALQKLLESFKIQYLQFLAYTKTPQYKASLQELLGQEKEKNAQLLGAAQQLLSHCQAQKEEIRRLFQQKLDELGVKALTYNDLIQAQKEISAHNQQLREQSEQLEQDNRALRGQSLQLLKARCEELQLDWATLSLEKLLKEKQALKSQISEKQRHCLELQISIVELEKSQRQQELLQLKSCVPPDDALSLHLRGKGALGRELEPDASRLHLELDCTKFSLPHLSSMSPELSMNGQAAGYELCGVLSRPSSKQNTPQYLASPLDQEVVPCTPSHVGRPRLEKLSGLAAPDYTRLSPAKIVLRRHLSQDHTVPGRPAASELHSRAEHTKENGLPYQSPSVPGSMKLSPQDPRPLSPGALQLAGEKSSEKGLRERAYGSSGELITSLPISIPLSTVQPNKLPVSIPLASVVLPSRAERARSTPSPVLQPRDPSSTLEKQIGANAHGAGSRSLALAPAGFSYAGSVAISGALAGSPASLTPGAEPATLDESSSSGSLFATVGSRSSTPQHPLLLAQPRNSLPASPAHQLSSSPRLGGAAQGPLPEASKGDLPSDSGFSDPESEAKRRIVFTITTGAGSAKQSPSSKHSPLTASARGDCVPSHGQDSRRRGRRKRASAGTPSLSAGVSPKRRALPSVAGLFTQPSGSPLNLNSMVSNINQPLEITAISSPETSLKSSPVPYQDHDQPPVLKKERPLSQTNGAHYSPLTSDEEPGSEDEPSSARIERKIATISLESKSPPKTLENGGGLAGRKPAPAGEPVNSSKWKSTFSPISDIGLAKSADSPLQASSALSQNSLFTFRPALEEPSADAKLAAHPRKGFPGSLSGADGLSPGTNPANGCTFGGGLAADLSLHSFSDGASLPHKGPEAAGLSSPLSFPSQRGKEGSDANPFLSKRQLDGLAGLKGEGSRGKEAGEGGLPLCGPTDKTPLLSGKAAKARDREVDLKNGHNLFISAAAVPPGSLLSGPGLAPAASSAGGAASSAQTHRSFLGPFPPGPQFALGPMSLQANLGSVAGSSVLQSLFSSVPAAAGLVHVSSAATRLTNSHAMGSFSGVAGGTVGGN
The target in assay [2] is T1, Histone-lysine N-methyltransferase, H3 lysine-79 specific. Kind of assay: Binding affinity to human Avi-tagged biotinylated DOT1L (2 to 416 residues) assessed as target residence time at 100 nM by surface plasmon resonance assay. Background: In SPR one partner is held on a chip, and binding of the other changes the refractive index at the surface.
Target sequence in this assay (Q8TEK3 whole entry, looked up, the tested form may be a part): as the sequence (Q8TEK3 whole entry, the tested form may be a part) above
The next assay relates to MV4-11. Kind of assay: Antiproliferative activity against human MV4-11 cells harboring MLL-AF4 treated for 6 hrs measured after 8 days by Celltiter-Glo reagent based assay. It counts as functional, cell-based. In general terms: Cellular ATP, detected with luciferase, serves as a proxy for viable cell number.
In assay [3] the target is T1, Histone-lysine N-methyltransferase, H3 lysine-79 specific. Nature of the assay: Inhibition of DOT1L in human HeLa cells assessed as reduction in H3K79me2 level after 72 hrs by ELISA. In kind it is cell-based. On the technique in general: An ELISA detects its analyte on a solid surface through an enzyme-linked reagent.
Target sequence in this assay (Q8TEK3 whole entry, the tested form may be a part): as above
The target is the same in assay [4]. Kind of assay: Inhibition of DOT1L in human MOLM13 cells assessed as suppression of HoxA9 gene after 72 hrs by luciferase reporter gene assay. It counts as cell-based.
Target sequence in this assay (Q8TEK3 whole entry, the tested form may be a part): as above
The target is the same in assay [5]. Nature of the assay: Competitive inhibition of DOT1L (2 to 416 residues) (unknown origin) using biotinylated nucleosomes as substrate preincubated for 30 mins followed by substrate addition in presence of [3H-Me]SAM by scintillation proximity assay.
Target sequence in this assay (Q8TEK3 whole entry, the tested form may be a part): as above

On to `Nc1ncnc2c1ncn2[C@@H]1O[C@H](CO)[C@@H](O)[C@H]1O` [ADENOSINE], for which, in assay [1] (read-out: IC50), the IC50 is 100000 nM.
Still for that read-out and setting: the value for `N[C@@H]1CCCN(c2ncnc3[nH]ccc23)C1` was 240000 nM.
Take `O=C(CNC(=O)Nc1ccc2ccn(-c3ccccc3Cl)c2c1)NCCCCN[C@@H]1CCCN(c2ncnc3[nH]ccc23)C1`: the IC50 in assay [1] (read-out: IC50) was 4 nM.
On the same count and under the same terms, the value for `CN(CCCNC(=O)CNC(=O)Nc1ccc2ccn(-c3ccccc3Cl)c2c1)[C@@H]1CCCN(c2ncnc3[nH]ccc23)C1` was 0.15 nM; that for `CN[C@@H]1CCCN(c2ncnc3[nH]ccc23)C1` was 141000 nM; that for `O=C(CNC(=O)Nc1ccc2ccn(-c3ccccc3Cl)c2c1)NCCCN[C@@H]1CCCN(c2ncnc3[nH]ccc23)C1` was 4 nM.
For the compound `CC(C)N(C[C@H]1O[C@@H](n2cnc3c(N)ncnc32)[C@H](O)[C@@H]1O)[C@H]1C[C@@H](CCc2nc3cc(C(C)(C)C)ccc3[nH]2)C1` [PINOMETOSTAT], the TIME in assay [2] is > 5 h. The same compound returned an IC50 in the assay with MV4-11 of 15 nM.
Consider `Cc1ncccc1-c1c(Cl)sc2ccc(NC(=O)NCC(=O)NCCCN(C)[C@@H]3CCCN(c4ncnc5[nH]ccc45)C3)cc12`, for which the IC50 was < 0.1 nM in assay [1] (read-out: IC50), 3 nM in assay [3], 17 nM in assay [4] and 5 nM with MV4-11. Further, in assay [5], the inhibition constant (Ki) stood at 0.002 nM. For the same compound, the TIME in assay [2] is > 5 h.
In the case of `NC(=O)CNC(=O)Nc1ccc2ccn(-c3ccccc3Cl)c2c1`, the IC50 in assay [1] (read-out: pIC50 (converted)) was 7940 nM.
